Source: patent US10174013B2, “Benzimidazole derivatives as kinase inhibitors” (SELVITA S.A., priority 2012, dated 2019)
Structures can show the parent of a compound that is named as a salt. Where two headings read alike, the source gives them in different places.

Experiments:
FLT3wt = FLT3wt (Homo sapiens (Human), UniProt P36888); assay: ADP-Glo Kinase Assay, Flt3 wt; assay type: biochemical; details: 1 μM compound; for inhibition at 1 µM: read-out: Flt3wt % INH (1 μM)
Experimental: (§1) Compounds of the present invention were tested for their inhibitory activity against Pim-1, Pim-2, Pim-3, Flt3 wt, Flt3 ITD, CDK2/E and DYRK1. The testing of the compounds was carried out using the ADP-Glo™ Kinase Assay from Promega Corporation (Madison, Wis., USA).
(§2) The ADP-Glo™ Kinase Assay is a luminescent ADP detection assay to measure kinase activity by quantifying the amount of ADP produced during a kinase reaction. The kinase assay is performed in kinase assay buffer (5 mM MOPS, pH 7.5, 5 mM MgCl2, 0.4 mM EDTA, 1.5 mM DTT). Test samples initially dissolved in DMSO at 10 mM were diluted with the assay buffer to 1000 nM. A 30 μL volume/well of a mixture of substrates containing ATP (final ATP concentration in each kinase assay was equal to its apparent ATP Km).
(§3) The assay was performed in two steps: first, after the kinase reaction, an equal volume of ADP-Glo™ Reagent was added to terminate the kinase reaction and deplete the remaining ATP. Second, the Kinase Detection Reagent was added to simultaneously convert ADP to ATP and allowed the newly synthesized ATP to be measured using a luciferase/luciferin reaction. The luminescent signal generated was proportional to the ADP concentration produced and was correlated with kinase activity. A microplate spectrophotometer (Synergy 2 multi-mode microplate reader [BioTek]) was used for detecting the luminescence. The data was normalized and the percent of inhibition was obtained according to the following equation: […]

MV4-11 cells = assay: Growth inhibition, MTS assay, MV4-11; assay type: cell-based, Human; details: MTS cell viability, read-out: MV4-11 ED50
Text: (§4) The following cell lines, were obtained and used in tests as outlined below: • Human myelomonocytic, biphenotypic leukemia MV4-11 cells (harboring a Flt3-ITD mutation); • Human Acute Myeloid Leukemia MOLM16 cells; • Human Acute Myeloid Leukemia MOLM13 cells (harboring a Flt3-ITD mutation); • Human Myeloid Leukemia KG-1 cells; • Human erythroleukemia HEL92 cells; • Human mantle cell lymphoma Jeko-1 cells; • Human hepatocellular carcinoma HepG2 cells; and • Human colon adenocarcinoma SW-480 cells.
(§5) The assays were carried out according to the following protocol, which is described as an example for the MV4-11 cells:
(§6) Ten thousand MV4-11 cells were inoculated into each well of a 96-well microplate (manufactured by Corning Corp.) using Iscove's MDM medium (culture medium) containing 10% fetal calf serum (FCS). The same day, a dimethyl sulfoxide (DMSO) solution of each test compound prepared in a concentration of 10 mmol/L was further diluted with DMSO to the desired concentrations (0.1, 0.5, 1, 2.5, 5 and 10 micromol/L), and the diluted solution was added to each well. The individual wells were further cultured in 5% carbon dioxide at 37° C. for 72 hours. […] Briefly, 10 μl MTS (3-(4,5-Dimethyl-2-thiazolyl)-5-(carboxymethoxyphenyl)-2-(4-sulfophenyl)-2H-tetrazolium was added to each well, and culturing was performed in 5% carbon dioxide at 37° C. for 2 hours. After this incubation and using a microplate spectrophotometer (Synergy 2 multi-mode microplate reader (BioTek)), the absorbance of each well was measured at 490 nm. The value for cells not incubated with a test compound was designated as 100%. By comparing these values with the absorbance difference obtained at the well in which each test compound was added, the cell viability (% viability) after treatment with the test compound was calculated.

Pim-1 = Pim-1 (Homo sapiens (Human), UniProt P11309); assay: ADP-Glo Kinase Assay, Pim-1; assay type: biochemical; details: 1 μM compound; for inhibition at 1 µM: read-out: Pim-1 % INH (1 μM)
Experimental: as §1, §2, §3

Pim-3 = Pim-3 (Homo sapiens (Human), UniProt Q86V86); assay: ADP-Glo Kinase Assay, Pim-3; assay type: biochemical; details: 1 μM compound; for inhibition at 1 µM: read-out: Pim-3 % INH (1 μM)
Experimental: as §1, §2, §3

CDK2/E = CDK2/E (Homo sapiens (Human), UniProt P24941); assay: ADP-Glo Kinase Assay, CDK2/E; assay type: biochemical; details: 1 μM compound; for inhibition at 1 µM: read-out: CDK2/E % INH (1 μM)
Experimental: as §1, §2, §3

HepG2 cells = assay: Growth inhibition, MTS assay, HepG2; assay type: cell-based, Human; details: MTS cell viability, read-out: HepG2 ED50
Text: as §4, §5, §6

HEL92 cells = assay: Growth inhibition, MTS assay, HEL92; assay type: cell-based, Human; details: MTS cell viability, read-out: HEL92 ED50
Text: as §4, §5, §6

Pim-2 = Pim-2 (Homo sapiens (Human), UniProt Q9P1W9); assay: ADP-Glo Kinase Assay, Pim-2; assay type: biochemical; details: 1 μM compound; for inhibition at 1 µM: read-out: Pim-2 % INH (1 μM)
Experimental: as §1, §2, §3

DYRK1 = DYRK1 (Homo sapiens (Human), UniProt Q13627); assay: ADP-Glo Kinase Assay, DYRK1; assay type: biochemical; details: 1 μM compound; for inhibition at 1 µM: read-out: DYRK1A % INH (1 μM)
Experimental: as §1, §2, §3

Chain of FLT3wt (P36888 27-993): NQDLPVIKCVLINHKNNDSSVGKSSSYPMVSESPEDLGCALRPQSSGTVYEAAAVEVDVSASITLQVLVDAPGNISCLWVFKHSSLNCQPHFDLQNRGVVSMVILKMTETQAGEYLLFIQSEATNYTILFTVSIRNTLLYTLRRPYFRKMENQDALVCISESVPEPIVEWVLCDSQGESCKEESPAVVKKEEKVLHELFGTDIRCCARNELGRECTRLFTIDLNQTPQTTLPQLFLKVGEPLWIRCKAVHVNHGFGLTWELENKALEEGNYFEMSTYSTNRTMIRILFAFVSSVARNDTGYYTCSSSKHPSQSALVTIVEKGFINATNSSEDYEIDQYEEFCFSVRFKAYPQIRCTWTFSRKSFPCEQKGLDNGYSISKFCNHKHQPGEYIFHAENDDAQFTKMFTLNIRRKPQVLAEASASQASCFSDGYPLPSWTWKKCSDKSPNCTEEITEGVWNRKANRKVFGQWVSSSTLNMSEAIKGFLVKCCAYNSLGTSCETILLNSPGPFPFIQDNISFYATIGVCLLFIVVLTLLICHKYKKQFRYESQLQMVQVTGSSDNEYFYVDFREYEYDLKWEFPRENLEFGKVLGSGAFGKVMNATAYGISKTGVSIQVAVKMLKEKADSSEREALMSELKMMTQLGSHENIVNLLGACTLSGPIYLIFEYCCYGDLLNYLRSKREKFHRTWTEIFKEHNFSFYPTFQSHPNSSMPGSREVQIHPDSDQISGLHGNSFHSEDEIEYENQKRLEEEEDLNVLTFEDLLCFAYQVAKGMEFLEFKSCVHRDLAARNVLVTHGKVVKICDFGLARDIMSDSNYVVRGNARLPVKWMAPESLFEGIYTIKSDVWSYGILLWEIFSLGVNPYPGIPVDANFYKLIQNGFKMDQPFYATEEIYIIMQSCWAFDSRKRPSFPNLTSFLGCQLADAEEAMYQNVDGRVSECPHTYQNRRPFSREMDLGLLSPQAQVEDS
Chain of Pim-1 (P11309 whole entry): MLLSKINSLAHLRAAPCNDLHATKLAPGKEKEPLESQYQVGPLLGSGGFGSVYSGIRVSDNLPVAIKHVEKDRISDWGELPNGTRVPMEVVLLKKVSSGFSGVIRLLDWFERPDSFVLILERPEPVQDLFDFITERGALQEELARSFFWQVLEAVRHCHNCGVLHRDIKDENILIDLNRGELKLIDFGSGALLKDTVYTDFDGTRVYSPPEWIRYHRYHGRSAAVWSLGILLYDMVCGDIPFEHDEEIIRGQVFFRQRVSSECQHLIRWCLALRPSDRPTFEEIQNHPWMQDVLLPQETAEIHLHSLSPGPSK
Chain of Pim-2 (Q9P1W9 whole entry): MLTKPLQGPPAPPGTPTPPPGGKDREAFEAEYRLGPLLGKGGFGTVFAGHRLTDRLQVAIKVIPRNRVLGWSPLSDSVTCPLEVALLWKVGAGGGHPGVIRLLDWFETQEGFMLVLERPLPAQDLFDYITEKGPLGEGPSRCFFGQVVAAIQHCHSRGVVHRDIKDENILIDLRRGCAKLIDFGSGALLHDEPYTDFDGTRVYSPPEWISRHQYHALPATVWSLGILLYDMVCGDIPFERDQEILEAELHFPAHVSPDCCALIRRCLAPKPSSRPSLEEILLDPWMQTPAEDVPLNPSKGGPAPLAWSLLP

| Compound | Flt3wt % INH (1 μM) (FLT3wt) [%] | IC50 (MV4-11 cells; 72 hours) [nM] | Pim-1 % INH (1 μM) (Pim-1) [%] | Pim-3 % INH (1 μM) (Pim-3) [%] | CDK2/E % INH (1 μM) (CDK2/E) [%] | IC50 (HepG2 cells; 72 hours) [nM] | IC50 (HEL92 cells; 72 hours) [nM] | Pim-2 % INH (1 μM) (Pim-2) [%] | inhibition at 1 µM (FLT3wt) [%] | IC50 (MV4-11 cells; Homo sapiens, MV4-11, 72 h) [nM] | inhibition at 1 µM (Pim-1) [%] | inhibition at 1 µM (Pim-3) [%] | inhibition at 1 µM (DYRK1) [%] | inhibition at 1 µM (CDK2/E) [%] | IC50 (HepG2 cells; Homo sapiens, HepG2, 72 h) [nM] | IC50 (HEL92 cells; Homo sapiens, 72 h) [nM] | inhibition at 1 µM (Pim-2) [%] | DYRK1A % INH (1 μM) (DYRK1) [%] |
| --- | --- | --- | --- | --- | --- | --- | --- | --- | --- | --- | --- | --- | --- | --- | --- | --- | --- | --- |
| CC(C)Cn1c(N2CCC[C@@H](N)C2)nc2c([N+](=O)[O-])c(Br)c(Br)cc21.Cl [Example 1AU] | 7 | 2400 | >95 | 68 | <5 | 1900 | 5800 | 52 | – | – | – | – | – | – | – | – | – | – |
| CC(C)n1c(NC2CCNC2)nc2c([N+](=O)[O-])c(Br)c(Br)cc21 (stereo not drawn) [Example 1BA] | – | – | – | – | – | – | – | – | 15 | 1100 | > 95 | 82 | 52 | 6 | 1900 | 6900 | 51 | – |
| N[C@@H]1CCN(c2nc3c([N+](=O)[O-])c(Br)c(Br)cc3n2CC2CC2)C1 [Example 1BG] | 23 | 1600 | >95 | >95 | <5 | 4000 | – | 82 | – | – | – | – | – | – | – | – | – | >95 |
| CC(C)n1c(N2CCC[C@H](N)C2)nc2c(C#N)c(Br)c(Br)cc21 [Example 1BJ] | – | 600 | – | – | <5 | – | – | – | 31 | – | > 95 | > 95 | – | – | 4800 | – | 82 | 54 |
| CC(C)n1c(NCC2CNCCO2)nc2c(C#N)c(Br)c(Br)cc21 (stereo not drawn) [Example 1BN] | – | – | – | – | – | – | – | – | < 5 | 1900 | > 95 | 77 | 21 | < 5 | 5100 | – | 29 | – |
| CC(C)n1c(N[C@H]2CNC[C@@H]2O)nc2c([N+](=O)[O-])c(Br)c(Br)cc21.Cl [Example 1CE] | 12 | 2800 | >95 | 76 | <5 | 3200 | – | 53 | – | – | – | – | – | – | – | – | – | 37 |
| CCn1c(N2CC[C@@H](N)C2)nc2c([N+](=O)[O-])c(Cl)c(Cl)cc21 [Example 1CO] | 12 | 4300 | >95 | 69 | 27 | 3900 | – | 25 | – | – | – | – | – | – | – | – | – | 30 |
| COCCn1c(N2CC[C@@H](N)C2)nc2c([N+](=O)[O-])c(Br)c(Br)cc21 [Example 1CS] | 10 | 4800 | >95 | 56 | 9 | 4700 | – | 23 | – | – | – | – | – | – | – | – | – | 37 |
| CCn1c(N2CCC[C@H](N)C2)nc2c([N+](=O)[O-])c(Cl)c(Cl)cc21 [Example 1CT] | 7 | 2700 | >95 | 64 | 6 | 6000 | – | 28 | – | – | – | – | – | – | – | – | – | 22 |
| CCn1c(N2CCNCC2)nc2c(C(F)(F)F)c(Br)c(Br)cc21 [Example 9A, 5,6-dibromo-1-ethyl-2-(piperazin-1-yl)-4-(trifluoromethyl)-1H-1,3-benzodiazolehydrochloride] | – | – | – | – | – | – | – | – | 76 | 300 | > 95 | 66 | 77 | < 5 | 1500 | – | 15 | – |
| COC(CN)CNc1nc2c(C#N)c(Br)c(Br)cc2n1C(C)C (stereo not drawn) [Example 22AC, 2-[(3-amino-2-methoxypropyl)amino]-5,6-dibromo-1-(propan-2-yl)-1H-1,3-benzodiazole-4-carbonitrile] | – | – | – | – | – | – | – | – | 7 | 4100 | > 95 | 61 | 16 | < 5 | 7200 | – | 30 | – |
| CCn1c(Nc2ccccc2N)nc2c([N+](=O)[O-])c(Br)c(Br)cc21 [Example 22N, 1-N-(5,6-dibromo-1-ethyl-4-nitro-1H-1,3-benzodiazol-2-yl)benzene-1,2-diamine] | – | – | – | – | – | – | – | – | < 5 | 2600 | 82 | 44 | 21 | < 5 | 4200 | – | 23 | – |
| CC(C)n1c(N2CCN[C@@H](C)C2)nc2c([N+](=O)[O-])c(Br)c(Br)cc21 [Example 22Z, 5,6-dibromo-2-[(3S)-3-methylpiperazin-1-yl]-4-nitro-1-(propan-2-yl)-1H-1,3-benzodiazole] | – | – | – | – | – | – | – | – | 73 | 700 | > 95 | 85 | 63 | – | 1600 | 2400 | 37 | – |
